System: Human glioma cells U87
Test: Glioma treatment in nude mice
Type: in vivo
Experimental: Human glioma cells U87 were subcutaneously transplanted into the back of nude mice of 6 weeks old, which were used as the tumor model after tumor formation. In the experiment, the mice were divided into 4 groups with 8 mice in each group: normal control group, model control group, ADRB3 antibody treatment group, Gemcitabine and CD40 antibody combined treatment group. The ADRB3 antibody treatment group was intraperitoneally injected with 0.1 mg of ADRB3 antibody once every 5 days for a total of 6 weeks. The model control group was intraperitoneally injected with equivalent amount of normal saline.

Nc1ccn([C@@H]2O[C@H](CO)[C@@H](O)C2(F)F)c(=O)n1 [Gemcitabine]
metastatic lesion in the lung: some metastases are found

Source: patent US11524073B2, “Anti-human ADRB3 monoclonal antibody and application thereof in disease diagnosis and treatment” (priority 2017, dated 2022)
